Test results from patent publication US7432353B2, “Fluorescent indicator proteins” (priority 2005, dated 2008).

How the values were obtained:
[1] = biological target: T1, E. coli RBP (ribose binding protein) fusion protein CrbsBY-ND (Asn-Asp between ECFP and RBP), SEQ ID NO: 38 (Escherichia coli, UniProt P02925); experiment: Ribose titration and sugar specificity of FRET sensor CrbsBY-ND; conditions: for affinity (substrate specificity): in words, FIG. 12C
T1 construct: made in house; host or cells: E. coli JM109 (DE3)
Protocol: (§1) The fluorescence analysis of the MBP fusion proteins expressed and purified in Example 2 was performed using fluorescence spectrophotometer Cary Eclipse (Varian, Australia) at 25° C., and the MBP fusion proteins were diluted in PBS buffer (pH 7.4) to the same concentrations of 0.2 μM. To define the FRET efficiency in the fluorescence analysis, the emission intensity ratio between the emission intensity of ECFP at 480 nm, measured at an excitation wavelength of 436 nm, and the emission intensity of EYFP at 530 nm, caused by FRET, was substituted into Equation 3 below for convenience: Ratio=[530 nm/480 nm] [Equation 3]
(§2) Profiles of the ratios at wide substrate concentrations were fit by a four-parameter Hill equation with SigmaPlot (SSI, USA) and the binding substance concentration corresponding to the medium between ratio10 mM and ratioapo was determined to be the dissociation constant (Kd) of the fusion proteins.
(§3) The selection of PBPs to be introduced into the MBP position was performed by collecting data from SCOP (Structural Classification of Proteins; http://scop.mrc-lmb.cam.ac.uk/scop/), and then investigating the kinetic change of three-dimensional structures which is accompanied by substrate binding in PDB (Protein Data Bank, http://www.rcsb.org/pdb/). For example, three kinds of E. coli-derived PBPs such as ALBP, RBP, and ARBP were introduced into the MBP site of the MBP fusion proteins according to the present invention. For this purpose, the genetic sequence information of said PBPs was secured from Swiss-Prot (http://kr.expasy.org/), and on the basis of the information, primers capable of amplifying genes encoding the PBPs were constructed. The genes were amplified by performing PCR from the chromosome of E. coli MG1655 using the constructed primers.
(§4) The fusion protein expression vectors constructed in the form of libraries as described above were transformed into E. coli JM109 (DE3), and 3-5 bacterial strains transformed with vectors were randomly selected from each of the libraries without carrying out the screening process described in Example 4, and were expressed and purified according to the method of Example 2. Then, the various PBP fusion proteins were subjected to analyze the fluorescence characteristics to each of substances, and sugar sensors (the fluorescent indicator proteins for detection of sugar) having the highest signal intensity were selected. As a result, as shown on FIGS. 11A, 11B and 11C, and Table 2 below, CalsBY-QV of SEQ ID NO: 36, CaraFY-PR of SEQ ID NO: 37 and CrbsBY-ND of SEQ ID NO: 38 could be secured.
(§5) To examine the substrate affinity of said three kinds of fusion proteins, the substrate specificity thereof for a variety of sugars was analyzed.

[2] = biological target: T2, E. coli ALBP (allose binding protein) fusion protein CalsBY-QV (Gln-Val between ECFP and ALBP), SEQ ID NO: 36 (Escherichia coli, UniProt P39265); experiment: Allose titration and sugar specificity of FRET sensor CalsBY-QV
T2 construct: made in house; host or cells: E. coli JM109 (DE3)

[3] = biological target: T3, E. coli ARBP (arabinose binding protein) fusion protein CaraFY-PR (Pro-Arg between ECFP and ARBP), SEQ ID NO: 37 (Escherichia coli, UniProt P02924); experiment: Arabinose titration and sugar specificity of FRET sensor CaraFY-PR; conditions: for affinity (substrate specificity): in words, FIG. 12B
T3 construct: made in house; host or cells: E. coli JM109 (DE3)
Protocol: as §1, §2, §3, §4, §5

[4] = biological target: T4, MBP (maltose binding protein) fusion protein CMY-LH (Leu-His between ECFP and MBP), SEQ ID NO: 32 (Escherichia coli, UniProt P0AEX9); experiment: Maltose titration and sugar specificity of FRET sensor CMY-LH; conditions: for affinity (substrate specificity): in words, FIG. 8A, 10 mM for d-glucose and melezitose, change attributed to contamination of trace maltose
T4 construct: made in house; host or cells: E. coli JM109 (DE3)
Protocol: as §1, §2

[5] = biological target: T5, SBP (sucrose binding protein; MBP mutant Asp14Leu, Lys15Phe, Trp62Tyr, Glu111Tyr) fusion protein CSY-BII (Escherichia coli, UniProt P0AEX9, D40L/E137Y/K41F/W88Y); experiment: Sucrose and maltose titration of FRET sensor CSY-BII; conditions: for Quantification range: range between 10 and 90% saturation
T5 construct: SBP = engineered MBP made on pMALc2x template; expressed in E. coli JM109(DE3), purified
Protocol: as §1, §2
(§6) The MBP-encoding gene to be used as a template was a pMALc2x vector (NEB, USA), and to make the SBP gene, PCR was performed using primers of SEQ ID NOs: 27, 28, 29 and 11. Because the above-amplified gene contains partial mutations in MBP, including a substitution of Asp14 with Leu, a substitution of Lys15 with Phe, a substitution of Trp62 with Tyr, and a substitution of Glu111 with Tyr, it encodes the SBP gene capable of binding to sucrose, as reported in the prior art (Guntas, G. et al., PNAS, 102:11224, 2005).
(§7) The above SBP fusion protein expression vectors were transformed into E. Coli JM109 (DE3), expressed and purified according to the method of Example 3.

[6] = biological target: T6, SBP (sucrose binding protein; MBP mutant Asp14Leu, Lys15Phe, Trp62Tyr, Glu111Tyr) fusion protein CSY-B (Escherichia coli, UniProt P0AEX9, D40L/E137Y/K41F/W88Y); experiment: Sucrose and maltose titration of FRET sensor CSY-B; conditions: for Quantification range: range between 10 and 90% saturation
T6 construct: SBP = engineered MBP made on pMALc2x template; expressed in E. coli JM109(DE3), purified
Protocol: as §1, §2, §6, §7

[7] = biological target: T7, MBP (maltose binding protein) fusion protein CMY-BII (ECFP-SR-MBP-GS-EYFP) (Escherichia coli, UniProt P0AEX9); experiment: Maltose titration of FRET sensor CMY-BII; conditions: range between 10 and 90% saturation
T7 construct: mature MBP from pMALc2x; expressed in E. coli JM109(DE3), purified
Protocol: as §1, §2

[8] = biological target: T8, MBP (maltose binding protein) fusion protein CMY-B (ECFP-MBP-EYFP) (Escherichia coli, UniProt P0AEX9); experiment: Maltose response of FRET sensor CMY-B; conditions: in words; control for yeast imaging, 10 mM maltose
T8 construct: mature MBP from pMALc2x; expressed in E. coli JM109(DE3), purified
Protocol: as §1, §2

[9] = biological target: T9, MBP (maltose binding protein) fusion protein CMY-LH variant CMY-LH/W62L (Trp62Leu in MBP), SEQ ID NO: 35 (Escherichia coli, UniProt P0AEX9, W88L); experiment: Maltose titration and sugar specificity of FRET sensor CMY-LH/W62L; conditions: range between 10 and 90% saturation
T9 construct: made in house; host or cells: E. coli JM109 (DE3)
Protocol: as §1, §2

[10] = biological target: T10, MBP (maltose binding protein) fusion protein CMY-LH variant CMY-LH/W62A (Trp62Ala in MBP), SEQ ID NO: 33 (Escherichia coli, UniProt P0AEX9, W88A); experiment: Maltose titration of FRET sensor CMY-LH/W62A; conditions: range between 10 and 90% saturation
T10 construct: made in house; host or cells: E. coli JM109 (DE3)
Protocol: as §1, §2

[11] = biological target: T11, SBP (sucrose binding protein; MBP mutant Asp14Leu, Lys15Phe, Trp62Tyr, Glu111Tyr) fusion protein CSY-LH, SEQ ID NO: 39 (Escherichia coli, UniProt P0AEX9, D40L/E137Y/K41F/W88Y); experiment: Sucrose and maltose titration and sugar specificity of FRET sensor CSY-LH; conditions: for Quantification range: range between 10 and 90% saturation
T11 construct: made in house; host or cells: E. coli JM109 (DE3)
Protocol: as §1, §2, §6, §7
The CSY-LH was analyzed for binding affinity for a variety of sugars.

[12] = biological target: T12, MBP (maltose binding protein) fusion protein CMY-0 (ECFP-MBP-EYFP without connecting peptides) (Escherichia coli, UniProt P0AEX9); experiment: Maltose titration of FRET sensor CMY-0 (fluorescence ratio 530/480 nm); conditions: range between 10 and 90% saturation
T12 construct: mature MBP amplified from pMALc2x (NEB); expressed in E. coli JM109(DE3), purified
Protocol: as §1, §2

[13] = biological target: T13, MBP (maltose binding protein) fusion protein CMY-LH variant CMY-LH/W62H (Trp62His in MBP), SEQ ID NO: 34 (Escherichia coli, UniProt P0AEX9, W88H); experiment: Maltose titration and sugar specificity of FRET sensor CMY-LH/W62H; conditions: range between 10 and 90% saturation
T13 construct: made in house; host or cells: E. coli JM109 (DE3)
Protocol: as §1, §2

[14] = biological target: T14, MBP (maltose binding protein) fusion protein CMY-QI (Gln-Ile between ECFP and MBP), SEQ ID NO: 31 (Escherichia coli, UniProt P0AEX9); experiment: Maltose titration of FRET sensor CMY-QI; conditions: range between 10 and 90% saturation
T14 construct: made in house; host or cells: E. coli JM109 (DE3)
Protocol: as §1, §2

[15] = ratio(10 mM) minus ratioapo, saturating sugar

OC[C@H]1OC(O)[C@H](O)[C@H](O)[C@@H]1O (some centres unmarked) [allose]
affinity (substrate specificity) [1]: very high affinity | Quantification range ([2]; allose, range between 10 and 90% saturation): 0.04 to 2.81 µM

OC1OC[C@H](O)[C@H](O)[C@H]1O (some centres unmarked) [arabinose]
Kd [3]: 0.36 ± 0.01 µM | Quantification range ([3]; arabinose, range between 10 and 90% saturation): 0.05 to 2.74 µM | Δratio ([3]; arabinose, ratio(10 mM) minus ratioapo, saturating sugar): 0.29

OC[C@H]1OC(O)[C@H](O)[C@@H](O)[C@@H]1O (stereo partly drawn) [d-glucose]
affinity (substrate specificity) [4]: low level of affinity

OC[C@H]1OC(O)[C@H](O)[C@@H](O)[C@H]1O (some centres unmarked) [galactose]
affinity (substrate specificity) [3]: very high affinity

OC[C@H]1O[C@@H](O[C@H]2[C@H](O)[C@@H](O)C(O)O[C@@H]2CO)[C@H](O)[C@@H](O)[C@H]1O (some centres unmarked) [lactose]
affinity (substrate specificity) [3]: low affinity

OC[C@H]1O[C@H](O[C@H]2[C@H](O)[C@@H](O)C(O)O[C@@H]2CO)[C@H](O)[C@@H](O)[C@@H]1O (some centres unmarked) [maltose]
Quantification range [5]: 155-3,800 μM | Quantification range ([4]; maltose, range between 10 and 90% saturation): 0.2 to 13.2 µM | Quantification range [6]: 120-9,500 μM | Quantification range [7]: 0.3 to 13.3 µM | sensitivity to maltose [8]: no sensitivity | Quantification range [9]: 10 to 650 µM | Quantification range [10]: 31-2,080 μM | Quantification range [11]: 80-5,080 μM | Quantification range [12]: 0.5 to 11.2 µM | Quantification range [13]: 5 to 325 µM | Quantification range [14]: 0.2 to 15.1 µM

OC[C@H]1O[C@@](CO)(O[C@H]2O[C@H](CO)[C@@H](O)[C@H](O)[C@H]2O)[C@@H](O[C@H]2O[C@H](CO)[C@@H](O)[C@H](O)[C@H]2O)[C@@H]1O [melezitose]
affinity (substrate specificity) [4]: low level of affinity

OC[C@H]1O[C@H](OC[C@H]2OC(O)[C@H](O)[C@@H](O)[C@@H]2O)[C@H](O)[C@@H](O)[C@H]1O (some centres unmarked) [melibiose]
affinity (substrate specificity) [3]: low affinity

C[C@@H]1OC(O)[C@H](O)[C@H](O)[C@H]1O (some centres unmarked) [rhamnose]
affinity (substrate specificity) [3]: low affinity

OC1OC[C@@H](O)[C@@H](O)[C@H]1O (some centres unmarked) [ribose]
Kd ([1]; ribose, 50% saturation): 0.17 ± 0.01 µM | Quantification range ([1]; ribose, range between 10 and 90% saturation): 0.03 to 1.15 µM | Δratio ([1]; ribose, ratio(10 mM) minus ratioapo, saturating sugar): −0.12 | affinity (substrate specificity) ([2]; in words, FIG. 12A, ribose at mM levels): low affinity

OC[C@H]1O[C@@](CO)(O[C@H]2O[C@H](CO)[C@@H](O)[C@H](O)[C@H]2O)[C@@H](O)[C@@H]1O [sucrose]
Kd [5]: 234 ± 18 µM | Quantification range [5]: 30-1,880 μM | Δratio [5, 15]: 0.14 | Kd [6]: 286 ± 16 µM | Quantification range [6]: 20-3,700 μM | Δratio [6, 15]: −0.11 | Kd [11]: 163 ± 3 µM | Kd, fold higher than previously reported results ([11]; compared to Guntas et al., PNAS, 102:11224, 2005): about 25 fold | Quantification range [11]: 17-1,560 μM | Δratio [11, 15]: 0.72

OC1OC[C@@H](O)[C@H](O)[C@H]1O (some centres unmarked) [xylose]
affinity (substrate specificity) [1]: significant affinity | affinity (substrate specificity) [3]: low affinity
